The source made the active and inactive calls. No cut-off for these calls is given here.
Assays:
BV-2 [1] = test: Cytotoxicity against mouse BV-2 cells assessed as reduction in cell viability at 120 uM after 24 hrs by MTT assay; type: cell-based; conditions: bv-2, 24 h
BV-2 [2] = test: Antiinflammatory activity in mouse BV-2 cells assessed as inhibition of LPS-induced NO production at 15 uM pretreated with compound for 1 hr followed by LPS stimulation for 24 hrs by Griess reagent based assay; type: functional, cell-based; conditions: time 25.0 hrs
BV-2 [3] = test: Antiinflammatory activity against mouse BV-2 cells assessed as inhibition of LPS-induced IL-6 production at 15 to 60 uM pretreated with compound for 1 hr followed by LPS stimulation for 24 hrs by ELISA; type: functional, cell-based; conditions: dose 15-60 µM, time 25.0 hrs
BV-2 [4] = test: Antiinflammatory activity against mouse BV-2 cells assessed as inhibition of LPS-induced IL-1beta production at 15 to 60 uM pretreated with compound for 1 hr followed by LPS stimulation for 24 hrs by ELISA; type: functional, cell-based; conditions: dose 15-60 µM, time 25.0 hrs
BV-2 [5] = test: Antiinflammatory activity against mouse BV-2 cells assessed as inhibition of LPS-induced ROS production at 15 to 60 uM pretreated with compound for 1 hr followed by LPS stimulation for 24 hrs by DCFH-DA staining based fluorescence microscopy; type: functional, cell-based; conditions: dose 15-60 µM, time 25.0 hrs
BV-2 [6] = test: Antiinflammatory activity against mouse BV-2 cells assessed as inhibition of LPS-induced TNFalpha production at 15 to 60 uM pretreated with compound for 1 hr followed by LPS stimulation for 24 hrs by ELISA; type: functional, cell-based; conditions: dose 15-60 µM, time 25.0 hrs
[7] = biological target: T1, Inhibitor of nuclear factor kappa-B kinase subunit beta (Mus musculus) (UniProt O88351); test: Inhibition of IKappaB phosphorylation in LPS-stimulated mouse BV-2 cells at 15 to 60 uM pretreated with compound for 1 hr followed by LPS stimulation for 24 hrs by Western blot analysis; type: cell-based; conditions: dose 15-60 µM, time 25.0 hrs
T1 sequence (whole entry): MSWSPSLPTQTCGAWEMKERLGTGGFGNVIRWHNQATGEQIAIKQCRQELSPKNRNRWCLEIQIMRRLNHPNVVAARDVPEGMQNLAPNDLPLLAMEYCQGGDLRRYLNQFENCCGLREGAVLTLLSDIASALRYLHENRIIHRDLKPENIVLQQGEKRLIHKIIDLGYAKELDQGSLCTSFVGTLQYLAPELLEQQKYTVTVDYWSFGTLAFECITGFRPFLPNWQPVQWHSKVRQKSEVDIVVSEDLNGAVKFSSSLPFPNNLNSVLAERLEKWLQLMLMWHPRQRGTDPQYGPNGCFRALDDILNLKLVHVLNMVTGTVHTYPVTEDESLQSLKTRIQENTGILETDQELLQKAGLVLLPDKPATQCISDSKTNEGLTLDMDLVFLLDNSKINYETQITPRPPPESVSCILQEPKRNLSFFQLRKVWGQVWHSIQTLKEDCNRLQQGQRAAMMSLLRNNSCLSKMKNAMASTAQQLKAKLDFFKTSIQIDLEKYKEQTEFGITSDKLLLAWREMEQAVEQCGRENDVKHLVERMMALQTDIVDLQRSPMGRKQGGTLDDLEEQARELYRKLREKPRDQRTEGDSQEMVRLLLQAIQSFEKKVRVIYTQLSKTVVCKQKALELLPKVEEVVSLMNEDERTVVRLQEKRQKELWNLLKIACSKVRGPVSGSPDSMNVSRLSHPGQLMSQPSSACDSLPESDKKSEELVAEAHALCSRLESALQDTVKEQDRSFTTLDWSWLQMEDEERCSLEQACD

[8] = biological target: MAP kinase p38 (Mus musculus) (UniProt P47811+O08911+Q9WUI1+Q9Z1B7); test: Inhibition of p38 phosphorylation in LPS-stimulated mouse BV-2 cells at 15 to 60 uM pretreated with compound for 1 hr followed by LPS stimulation for 24 hrs by Western blot analysis; type: cell-based; conditions: dose 15-60 µM, time 25.0 hrs
BV-2 [9] = test: Antiinflammatory activity in mouse BV-2 cells assessed as inhibition of LPS-induced NO production pretreated with compound for 1 hr followed by LPS stimulation for 24 hrs by Griess reagent based assay; type: functional, cell-based
BV-2 [10] = test: Antiinflammatory activity against LPS-induced mouse BV-2 cells assessed as decrease in COX2 protein expression at 15 to 60 uM pretreated with compound for 1 hr followed by LPS stimulation after 24 hrs by Western blot analysis; type: functional, cell-based; conditions: dose 15-60 µM, time 25.0 hrs
BV-2 [11] = test: Antiinflammatory activity against LPS-induced mouse BV-2 cells assessed as inhibition of NFkB protein expression at 15 to 60 uM pretreated with compound for 1 hr followed by LPS stimulation after 24 hrs by Western blot analysis; type: functional, cell-based; conditions: dose 15-60 µM, time 25.0 hrs
BV-2 [12] = test: Antiinflammatory activity against LPS-induced mouse BV-2 cells assessed as decrease in iNOS protein expression at 15 to 60 uM pretreated with compound for 1 hr followed by LPS stimulation after 24 hrs by Western blot analysis; type: functional, cell-based; conditions: dose 15-60 µM, time 25.0 hrs
BV-2 [13] = test: Antiinflammatory activity against LPS-induced mouse BV-2 cells assessed as inhibition of TLR-4 protein expression at 15 to 60 uM pretreated with compound for 1 hr followed by LPS stimulation after 24 hrs by Western blot analysis; type: functional, cell-based; conditions: dose 15-60 µM, time 25.0 hrs

| SMILES | Activity (BV-2 [1]) | inhibition (BV-2 [2]) | also measured |
| --- | --- | --- | --- |
| C=C/C=C/[C@@H]1OC[C@H](/C=C/[C@@H](O)[C@H](C)O)[C@H]1O | Non-Toxic | – | – |
| Cc1cc(O)cc(O)c1C(=O)OCC(=O)[C@@H](O)[C@H](C)O [GLOBOSUMONE C] | Non-Toxic | – | – |
| C/C=C/C=C/[C@H]1CO[C@@H](/C=C/[C@@H](O)CO)[C@@H]1O | Non-Toxic | Active | – |
| C=C/C=C/[C@@H]1OC[C@@H](/C=C/C=C/C)[C@@H]1O | Non-Toxic | – | – |
| C=C/C=C/[C@@H]1OC[C@H](/C=C/C=C/C)[C@H]1O | Non-Toxic | – | – |
| C=C/C=C/[C@@H]1OC[C@H](/C=C/[C@@H](O)[C@@H](C)O)[C@H]1O | Non-Toxic | – | – |
| Cc1cc(O)cc(O)c1C(=O)OC[C@@]1(C[C@@H](C)O)C[C@@H](O)C(=O)O1 | Non-Toxic | – | – |
| C=C/C=C/[C@H]1OC[C@@H]([C@@H](O)/C=C/[C@@H](C)O)[C@@H]1O | Non-Toxic | Active | – |
| C=C/C=C/[C@@H]1OC[C@H](/C=C/C[C@H](C)O)[C@H]1O | Non-Toxic | Active | – |
| C/C=C/C=C/[C@H]1CO[C@@H](/C=C/[C@H](O)CO)[C@@H]1O | Non-Toxic | – | Activity (BV-2 [3]): Active; Activity (BV-2 [4]): Active; Activity (BV-2 [5]): Active; Activity (BV-2 [6]): Active; inhibition [7]: Active; inhibition [8]: Active; IC50 (BV-2 [9]): 16.6 µM; Activity (BV-2 [10]): Active; inhibition (BV-2 [11]): Active; Activity (BV-2 [12]): Active; inhibition (BV-2 [13]): Active |

From ChEMBL document CHEMBL4840373, “Aureonitol Analogues and Orsellinic Acid Esters Isolated from Chaetomium elatum and Their Antineuroinflammatory Activity” (J Nat Prod, 2021)
